Consider 8 molecules from patent US9708339B2, “1,3-benzothiazinone, sulfoxide, and sulfone compounds with electrophilic substituent” (priority 2014, dated 2017).

In general, MIC refers to the lowest concentration found to suppress growth.

“Also recorded” adds a separate entry of the source. Read-outs that look alike come from different tables or passages of the source.

The target of one test is DprE1 (Mycobacterium tuberculosis, UniProt P9WJF0). The following applies: cited from earlier work.
The next test has as its system H37Rv strain of Mtb. In words: Microplate alamar blue assay (MABA), in vitro anti-TB activity in 7H12 and GAS media. Type of test: cell-based, Mycobacterium tuberculosis. The following applies: for MIC / percentage in brackets after MIC >1, 7H12 / percentage in brackets after MIC >1, GAS: H37Rv; for percentage in brackets after MIC >1, 7H12: 7H12 medium; for percentage in brackets after MIC >1, 7H12 / percentage in brackets after MIC >1, GAS: bracketed percentage not defined in the patent; for percentage in brackets after MIC >1, GAS: GAS medium; for activity against H37Rv strain of Mtb (in words): in vitro. In general terms: The colour change of resazurin is a common sign of viable cells or microbes.

The mark [1] stands for this setting: Mycobacterium tuberculosis, 7H12 medium (7H9 plus casitone, palmitic acid, albumin and catalase), read-out: MABA:MIC 7H12.
Where [2] appears, read: Mycobacterium tuberculosis, GAS (glycerol-alanine-salts) medium, read-out: MABA:MIC GAS.
[3] abbreviates: 7H12 medium (7H9 plus casitone, palmitic acid, albumin and catalase), read-out: MABA:MIC 7H12.
[4] abbreviates: GAS (glycerol-alanine-salts) medium, read-out: MABA:MIC GAS.

DprE1, sequence (P9WJF0 whole entry): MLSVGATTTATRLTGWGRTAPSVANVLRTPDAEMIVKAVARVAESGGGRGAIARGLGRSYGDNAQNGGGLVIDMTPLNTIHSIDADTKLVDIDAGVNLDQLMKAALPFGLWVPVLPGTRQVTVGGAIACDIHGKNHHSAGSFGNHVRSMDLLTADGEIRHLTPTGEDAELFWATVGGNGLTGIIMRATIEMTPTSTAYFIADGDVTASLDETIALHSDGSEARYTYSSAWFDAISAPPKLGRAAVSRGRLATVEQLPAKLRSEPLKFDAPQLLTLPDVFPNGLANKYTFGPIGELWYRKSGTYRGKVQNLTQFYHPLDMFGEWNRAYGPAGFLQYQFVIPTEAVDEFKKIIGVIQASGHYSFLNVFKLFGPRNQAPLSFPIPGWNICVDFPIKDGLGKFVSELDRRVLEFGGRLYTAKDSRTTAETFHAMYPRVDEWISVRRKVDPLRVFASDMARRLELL

Consider `C[C@H]1COC2(CCN(c3nc(=O)c4cc(C(F)(F)F)cc([N+](=O)[O-])c4s3)CC2)O1` [BTZ043, reference compound], for which the “mode of DprE1 inhibition (in words)” value at DprE1 is on record as “suicide inhibitor”. Further, the MIC with H37Rv strain of Mtb (setting [1]) and with H37Rv strain of Mtb (setting [2]) was less than 0.004 µM each time.

With `C[C@H]1COC2(CCN(c3nc(=O)c4cc(C(F)(F)F)cc(N)c4s3)CC2)O1` [Compound 6], the minimum inhibitory concentration (MIC) in the test on H37Rv strain of Mtb (setting [3]) is more than 1 µM. In addition, in the test with H37Rv strain of Mtb, the “percentage in brackets after MIC >1, 7H12” value was 87% and the “percentage in brackets after MIC >1, GAS” value amounted to 0%. The MIC with H37Rv strain of Mtb (setting [4]) is listed as more than 1 µM.

As for `NNC(=O)c1ccncc1` [INH, reference compound], the minimal inhibitory concentration (MIC) in the test on H37Rv strain of Mtb (setting [3]) is on record as 0.1 µM; with H37Rv strain of Mtb (setting [4]) it was 0.03 µM.

As to `CC1COC2(CCN(c3nc(=O)c4cc(C(F)(F)F)ccc4s3)CC2)O1` (centres unmarked) [Compound 8], in the test with H37Rv strain of Mtb (setting [3]), the minimum inhibitory concentration (MIC) is on record as more than 1 µM. In addition, in the test on H37Rv strain of Mtb, the “percentage in brackets after MIC >1, 7H12” value is recorded as 87%; the “percentage in brackets after MIC >1, GAS” value stood at 36%; the “activity against H37Rv strain of Mtb (in words)” value was “not significantly active; also recorded: reduced”. Further, the MIC in the test on H37Rv strain of Mtb (setting [4]) is given as more than 1 µM.

Regarding `O=c1nc(N2CCN(CC3CCCCC3)CC2)sc2c([N+](=O)[O-])cc(C(F)(F)F)cc12` [PBTZ169], on DprE1, the “mode of DprE1 inhibition (in words)” value is on record as “suicide inhibitor”.

Regarding `C[C@H]1COC2(CCN(c3nc(=O)c4cc(C(F)(F)F)cc(-n5cc(CN(C)C)nn5)c4s3)CC2)O1` [Compound 9], the MIC is 0.87 µM with H37Rv strain of Mtb (setting [1]) and 0.95 µM with H37Rv strain of Mtb (setting [2]).

For the molecule `CO[C@H]1/C=C/O[C@@]2(C)Oc3c(C)c(O)c4c(O)c(c(/C=N/N5CCN(C)CC5)c(O)c4c3C2=O)NC(=O)/C(C)=C\C=C\[C@H](C)[C@H](O)[C@@H](C)[C@@H](O)[C@@H](C)[C@H](OC(C)=O)[C@@H]1C` [Rifampin, reference compound], the figures for the MIC in the test with H37Rv strain of Mtb (setting [1]) and in the test on H37Rv strain of Mtb (setting [2]) were 0.05 µM and 0.04 µM, respectively.

In the case of `C[C@H]1COC2(CCN(c3nc(=O)c4cc(C(F)(F)F)cc(N=[N+]=[N-])c4s3)CC2)O1` [Compound 3], the MIC in the test on H37Rv strain of Mtb (setting [1]) was 0.47 µM; in the test with H37Rv strain of Mtb (setting [2]), 0.46 µM. Besides, the entries for the “activity against H37Rv strain of Mtb (in words)” value in the test on H37Rv strain of Mtb and in the test on H37Rv strain of Mtb (listed as BTZ-N3) were “outstanding activity; also recorded: impressive activity” and “impressive activity”, respectively.
